In BindingDB's records for patent US11198695 (SHIONOGI & CO., LTD., 2021):

These compounds were tested against 2-acylglycerol O-acyltransferase 2 (Homo sapiens, UniProt Q3SYC2) (assay: Inhibitory Activity).
Sequence of 2-acylglycerol O-acyltransferase 2 (Q3SYC2 whole entry): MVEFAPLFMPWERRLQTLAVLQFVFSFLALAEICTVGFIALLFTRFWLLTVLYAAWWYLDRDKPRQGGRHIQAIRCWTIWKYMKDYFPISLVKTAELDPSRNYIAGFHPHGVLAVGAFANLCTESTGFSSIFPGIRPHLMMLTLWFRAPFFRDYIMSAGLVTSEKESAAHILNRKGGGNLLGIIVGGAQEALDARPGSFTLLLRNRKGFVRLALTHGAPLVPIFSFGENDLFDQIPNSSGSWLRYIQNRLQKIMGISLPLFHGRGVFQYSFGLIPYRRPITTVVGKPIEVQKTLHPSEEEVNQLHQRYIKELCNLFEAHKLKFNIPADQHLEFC
Method: Solutions of the compounds of the present invention in DMSO were each aliquoted into 0.2-μL portions in a 384-well polystyrene microplate produced by Corning Incorporated, and 5 μL of an enzyme solution prepared with an assay buffer (100 mmol/L phosphate buffer (pH 7.4) containing 2 mmol/L DTT) and 5 μL of a substrate solution (100 mmol/L phosphate buffer (pH 7.4), 30 μmol/L 2-Oleoylglycerol, 10 μmol/L Oleoyl-CoA) were added thereto, and the resultant was stirred and centrifuged, and incubated in a moist chamber at room temperature for 1 hour. After enzymatic reaction, 50 μL of a quenching solution (containing 0.2 μmol/L Diolein-d5, 0.4% formic acid, and 50% isopropanol) containing Internal Standard (IS) was added to terminate the reaction, and the resultant was sealed in a plate produced by Shimadzu GLC Ltd., and then stirred and centrifuged, and measurement was performed by using an electrospray ionization method with a RapidFire360 and Agilent 6550 Q-TOF mass spectrometer. Diolein as a reaction product (P) of 2-Oleoylglycerol as the substrate and an ammonium adduct ion of the IS were detected, and the peak intensity ratio, P/IS, was calculated from the peak heights to evaluate the inhibitory activity. Inhibitory activities with/without addition of enzyme were defined as Control (+)/Control (−), respectively, and the respective % inhibitions were defined as 0% inhibition and 100% inhibition. The inhibitory activity was calculated from formula below with TIBCO Spotfire (produced by TIBCO Software Inc.):Inhibitory activity (%)=[1−{Sample−Control(−)}/{Control(+)−Control(−)}]*100where Sample indicates a peak intensity ratio: P/IS, when the compound of the present invention was added.
For COc1ccc(-n2nc3c(c2NC(=O)CS(C)(=O)=O)C(=O)N[C@]2(CCc4cc(OCC(F)(F)F)ccc42)C3)cc1 [US11198695, Example I-268], the IC50 was 0.026 µM. Work on C#Cc1ccc(-n2nc3c(c2C(=O)NS(=O)(=O)C2CC2)C(=O)N[C@@]2(CCc4cc(OCC(F)(F)F)ccc42)C3)nc1 [US11198695, Example II-201] yielded an IC50 of 0.0121 µM. With CS(=N)(=O)CC(=O)Nc1c2c(nn1-c1ccc(C(F)F)nn1)C[C@]1(CCc3cc(OCC(F)(F)F)ccc31)NC2=O (stereo partly drawn) [US11198695, Example II-281] the IC50 was less than 0.001 µM.
